Measurements published in publication PMC5883864 (Chemical Science, 2017).

Biological target: glucose oxidase (GOx) (Aspergillus niger, UniProt P13006)
Assay: HRP-coupled chromogenic assay of H2O2
Assay type: biochemical
Settings: free enzyme; O2 co-substrate

Sequence of glucose oxidase (GOx) (P13006 17-605): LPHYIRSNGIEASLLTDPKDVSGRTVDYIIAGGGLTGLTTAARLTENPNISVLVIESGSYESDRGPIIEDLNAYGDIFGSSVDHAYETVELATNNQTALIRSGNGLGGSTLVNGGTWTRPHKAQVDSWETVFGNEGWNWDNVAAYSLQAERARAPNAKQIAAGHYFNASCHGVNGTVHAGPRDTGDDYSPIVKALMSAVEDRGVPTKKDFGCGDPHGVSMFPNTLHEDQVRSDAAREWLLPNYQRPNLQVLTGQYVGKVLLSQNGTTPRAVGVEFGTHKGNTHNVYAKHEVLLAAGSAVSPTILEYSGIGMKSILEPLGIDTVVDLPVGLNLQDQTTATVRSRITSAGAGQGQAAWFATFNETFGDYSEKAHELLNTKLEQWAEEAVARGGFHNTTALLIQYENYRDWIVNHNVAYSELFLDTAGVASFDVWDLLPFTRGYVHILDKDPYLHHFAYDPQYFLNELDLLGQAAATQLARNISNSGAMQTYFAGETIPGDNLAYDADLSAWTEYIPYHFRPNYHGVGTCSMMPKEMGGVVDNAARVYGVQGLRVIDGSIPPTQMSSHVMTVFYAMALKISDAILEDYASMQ

SMILES: OC[C@H]1OC(O)[C@H](O)[C@@H](O)[C@@H]1O (stereo partly shown) [glucose]
- KM: glucose diffuses in and one of the products, namely hydrogen peroxide, must diffuse out
